Active and inactive are the calls of the source. The rule behind the calls is not given here. Non-standard residues stand in square brackets, D forms with d. Residues, ends and D or L forms follow the SMILES beside them. Sta = CC(C)C[C@H](N)[C@@H](O)CC(=O)O
target: T1, Beta-secretase 1 (Homo sapiens, UniProt P56817); experiment: Inhibition of recombinant human BACE1 using Rh-EVNLDAEFK as substrate after 60 mins by fluorescence quenching assay
T1 sequence (P56817 whole entry): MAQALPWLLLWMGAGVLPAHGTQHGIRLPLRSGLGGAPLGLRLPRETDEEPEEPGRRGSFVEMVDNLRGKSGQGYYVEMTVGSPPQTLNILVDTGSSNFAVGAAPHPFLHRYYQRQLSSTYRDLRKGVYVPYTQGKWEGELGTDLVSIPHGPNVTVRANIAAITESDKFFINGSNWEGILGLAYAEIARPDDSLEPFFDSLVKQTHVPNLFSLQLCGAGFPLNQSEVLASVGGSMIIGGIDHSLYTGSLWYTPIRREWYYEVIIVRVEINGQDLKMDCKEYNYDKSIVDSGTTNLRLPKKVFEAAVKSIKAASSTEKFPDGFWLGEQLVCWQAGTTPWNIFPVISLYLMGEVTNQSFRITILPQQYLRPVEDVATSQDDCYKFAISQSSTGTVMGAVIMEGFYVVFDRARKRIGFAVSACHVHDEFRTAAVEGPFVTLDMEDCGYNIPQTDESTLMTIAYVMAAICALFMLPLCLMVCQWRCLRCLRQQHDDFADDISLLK

SMILES | IC50 [µM]
O=c1ccc2ccc3occc3c2o1 [ANGELICIN] | > 500
CC1(C)C=Cc2cc3ccc(=O)oc3cc2O1 [XANTHYLETIN] | > 500
O=c1ccc2cc3ccoc3cc2o1 [PSORALEN] | > 500
O=c1ccc2c(O)c3ccoc3c(O)c2o1 | > 500
CC(C)=CCc1cc2ccc(=O)oc2cc1O [DEMETHYLSUBEROSIN] | 413
CC1(C)Oc2ccc3ccc(=O)oc3c2CC1O (centres undefined) [LOMATIN] | > 500
COc1ccc2ccc(=O)oc2c1 [HERNIARIN] | > 500
CC(C)=CCOc1c2occc2cc2ccc(=O)oc12 [PENTOSALEN] | 91.8
COc1c2ccoc2c(OC/C=C(\C)CCC=C(C)C)c2oc(=O)ccc12 | 11.1
CC(C)=CCC/C(C)=C/COc1c2ccoc2cc2oc(=O)ccc12 [BERGAMOTTIN] | 32.2
CC1(C)O[C@@H]1COc1c2occc2cc2ccc(=O)oc12 [HERACLENIN] | 444
CC(C)=CCOc1ccc2ccc(=O)oc2c1 [7-PRENYLOXYCOUMARIN] | > 500
CC(C)=CC(=O)O[C@H]1Cc2cc3ccc(=O)oc3cc2OC1(C)C [DECURSIN] | > 500
O=c1ccc2c(O)c3ccoc3cc2o1 [BERGAPTOL] | > 500
COc1c2ccoc2cc2oc(=O)ccc12 [BERGAPTEN] | > 500
COc1c2ccoc2c(O)c2oc(=O)ccc12 | > 500
O=c1ccc2cc3ccoc3c(O)c2o1 [XANTHOTOXOL] | > 500
CC[C@H](C)[C@H](NC(=O)[C@H](CCC(=O)O)NC(=O)[C@H](CCC(=O)O)NC(=O)[C@@H](NC(=O)[C@@H](N)CCCCN)[C@@H](C)O)C(=O)N[C@@H](CO)C(=O)N[C@@H](CCC(=O)O)C(=O)N[C@H](C(=O)N[C@@H](CC(N)=O)C(=O)N[C@@H](CC(C)C)[C@@H](O)CC(=O)N[C@H](C(=O)N[C@@H](C)C(=O)N[C@@H](CCC(=O)O)C(=O)N[C@@H](Cc1ccccc1)C(=O)O)C(C)C)C(C)C (H-KTEEISEVN[Sta]VAEF-OH) | 0.2
CC(C)(O)[C@H](O)COc1c2ccoc2cc2oc(=O)ccc12 [OXYPEUCEDANIN HYDRATE] | > 500
COc1ccc2ccc(=O)oc2c1CC=C(C)C [OSTHOLE] | > 500
COc1c2ccoc2c(OC[C@@H](O)C(C)(C)O)c2oc(=O)ccc12 [BYAKANGELICIN] | 220
COc1c2occc2c(OC/C=C(\C)CCC=C(C)C)c2ccc(=O)oc12 | 9.9

Second part, the molecule after the results:

IC50 [µM] | SMILES
> 500 | CC(C)=CCC/C(C)=C/COc1c2ccoc2c(O)c2oc(=O)ccc12
> 500 | CC(C)(O)[C@@H]1Cc2c(ccc3ccc(=O)oc23)O1 [COLUMBIANETIN]
> 500 | CC(C)=CCc1c(O)ccc2ccc(=O)oc12 [OSTHENOL]
> 500 | CC(C)=CCOc1c2ccoc2c(O)c2oc(=O)ccc12
359 | CC1(C)O[C@H]1COc1c2ccoc2cc2oc(=O)ccc12 [OXYPEUCEDANIN]
> 500 | O=c1ccc2ccccc2o1 [COUMARIN]
> 500 | C/C=C(\C)C(=O)O[C@H]1Cc2cc3ccc(=O)oc3cc2OC1(C)C [DECURSINOL TIGLATE]
> 500 | CC1(C)CCc2cc3ccc(=O)oc3cc2O1 [DIHYDROXANTHYLETIN]
> 500 | CC1(C)C=Cc2c(ccc3ccc(=O)oc23)O1 [SESALIN]
> 500 | COc1c2occc2cc2ccc(=O)oc12 [METHOXSALEN]
> 500 | O=c1ccc2ccc(O)cc2o1 [UMBELLIFERONE]
> 500 | COc1cc2oc(=O)ccc2cc1CC=C(C)C [SUBEROSIN]
> 500 | CC1(C)Oc2cc3oc(=O)ccc3cc2C[C@@H]1O [DECURSINOL]
344 | COc1c2occc2c(OCC=C(C)C)c2ccc(=O)oc12 [KINIDILIN]
105 | COc1c2ccoc2c(OC[C@H]2OC2(C)C)c2oc(=O)ccc12 [BYAKANGELICOL]
345 | CC(C)=CCC/C(C)=C/COc1ccc2ccc(=O)oc2c1 [AURAPTENE]
> 500 | CC(C)(O)[C@@H]1Cc2cc3ccc(=O)oc3cc2O1 [MARMESIN]
143 | COc1c2ccoc2c(OCC=C(C)C)c2oc(=O)ccc12 [PHELLOPTERIN]
> 500 | CC(C)(O)[C@H](O)COc1c2occc2cc2ccc(=O)oc12 [HERACLENOL]
> 500 | COc1c2ccoc2c(OC)c2oc(=O)ccc12 [ISOPIMPINELLIN]
> 500 | CC(C)=CCOc1c2ccoc2c(OCC=C(C)C)c2oc(=O)ccc12
> 500 | COc1cc2ccc(=O)oc2cc1OC [SCOPARONE]
20.4 | CC(C)=CCC/C(C)=C/COc1c2occc2cc2ccc(=O)oc12

target: T1, Beta-secretase 1; experiment: Non-competitive inhibition of recombinant human BACE1 using Rh-EVNLDAEFK as substrate by Dixon and Cornish-Bowden plots analysis

inhibition | SMILES
Active | CC(C)=CCC/C(C)=C/COc1c2occc2cc2ccc(=O)oc12

target: T1, Beta-secretase 1; experiment: Mixed type inhibition of recombinant human BACE1 using Rh-EVNLDAEFK as substrate by Dixon and Cornish-Bowden plots analysis

inhibition | SMILES
Active | CC(C)=CCC/C(C)=C/COc1c2ccoc2cc2oc(=O)ccc12 [BERGAMOTTIN]
Active | COc1c2occc2c(OC/C=C(\C)CCC=C(C)C)c2ccc(=O)oc12

target: T1, Beta-secretase 1; experiment: Inhibition of recombinant human BACE1 assessed as dissociation constant of enzyme-substrate-inhibitor complex using Rh-EVNLDAEFK as substrate by Dixon and Cornish-Bowden plots analysis

Ki [µM] | SMILES
0.7 | CC(C)=CCC/C(C)=C/COc1c2ccoc2cc2oc(=O)ccc12 [BERGAMOTTIN]
13.7 | COc1c2occc2c(OC/C=C(\C)CCC=C(C)C)c2ccc(=O)oc12
61.9 | CC(C)=CCC/C(C)=C/COc1c2occc2cc2ccc(=O)oc12

target: T1, Beta-secretase 1; experiment: Inhibition of recombinant human BACE1 assessed as dissociation constant of enzyme-inhibitor complex using Rh-EVNLDAEFK as substrate by Dixon and Cornish-Bowden plots analysis

Ki [µM] | SMILES
34.8 | CC(C)=CCC/C(C)=C/COc1c2ccoc2cc2oc(=O)ccc12 [BERGAMOTTIN]
103 | COc1c2occc2c(OC/C=C(\C)CCC=C(C)C)c2ccc(=O)oc12
61.6 | CC(C)=CCC/C(C)=C/COc1c2occc2cc2ccc(=O)oc12

Reference: ChEMBL document CHEMBL1932923, “Structure-activity relationships for naturally occurring coumarins as β-secretase inhibitor” (Bioorg Med Chem, 2012)
